# According to PubChem BioAssay (NCI):
# Where “and” joins values, the source holds several entries; their conditions need not be identical. Equal values may be shown once.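 48-hour exposure; five concentrations; linearly interpolated endpoints. GI50 is the concentration that inhibits growth by half. At the TGI there is no net growth.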
# Tests used:
# Assay in all cases: NCI-60 cell line screen, 48 h
# OVCAR-4 ovarian = test system: OVCAR-4 ovarian
# MALME-3M melanoma = test system: MALME-3M melanoma
# KM12 colon = test system: KM12 colon
# UACC-257 melanoma = test system: UACC-257 melanoma
# M14 melanoma = test system: M14 melanoma
# BT-549 breast = test system: BT-549 breast
# SK-MEL-28 melanoma = test system: SK-MEL-28 melanoma
# A498 renal = test system: A498 renal
# RXF 393 renal = test system: RXF 393 renal
# SN12C renal = test system: SN12C renal
Compound,GI50 (OVCAR-4 ovarian) [µM],TGI (OVCAR-4 ovarian),GI50 (MALME-3M melanoma) [µM],TGI (MALME-3M melanoma) [µM],GI50 (KM12 colon) [µM],TGI (KM12 colon),GI50 (UACC-257 melanoma) [µM],TGI (UACC-257 melanoma),GI50 (M14 melanoma) [µM],TGI (M14 melanoma),GI50 (BT-549 breast) [µM],TGI (BT-549 breast),GI50 (SK-MEL-28 melanoma) [µM],TGI (SK-MEL-28 melanoma) [µM],GI50 (A498 renal) [µM],TGI (A498 renal),GI50 (RXF 393 renal) [µM],TGI (RXF 393 renal) [µM],GI50 (SN12C renal) [µM],TGI (SN12C renal)
NCCCC[C@@H]1NC(=O)[C@H]2CCCN2C(=O)[C@H](Cc2ccccc2)CNC(=O)[C@H](Cc2ccccc2)NC1=O,> 37.5,> 37.5 µM,> 37.5,> 37.5,> 37.5,> 37.5 µM,> 37.5,> 37.5 µM,> 37.5,> 37.5 µM,> 37.5,> 37.5 µM,> 37.5,> 37.5,> 37.5,> 37.5 µM,> 37.5,> 37.5,> 37.5,> 37.5 µM
O=C(Nc1ccc(Br)cc1F)c1cc(I)ccc1O,3.16,> 100 µM,2.07,5.56,2.98,9.14 µM,2.43,6.88 µM,2.88,13.1 µM,2.26,6.43 µM,2.62,11.3,1.32,3.46 µM,2.55,7.54,2.75,9.91 µM
CC(C)CCCC(C)[C@H]1CCC2[C@@H]3CCC4Cc5nc6c(nc5C[C@]4(C)C3CC[C@@]21C)CC1CC[C@@H]2C(CC[C@@]3(C)C2CC[C@@H]3C(C)CCCC(C)C)[C@@]1(C)C6 (stereo not given in full),–,> 100 µM,–,> 100,–,> 100 µM,–,> 100 µM,–,> 100 µM,–,> 100 µM,–,> 100,–,> 100 µM,–,> 100,–,> 100 µM
Cc1cc([N+](=O)[O-])c(NS(=O)(=O)c2cccc(C(=O)O)c2)cc1-c1cccnc1,> 100,> 100 µM,> 100,> 100,35.1,> 100 µM,> 100,> 100 µM,> 100,> 100 µM,> 100,> 100 µM,> 100,> 100,> 100,> 100 µM,> 100,> 100,> 100,> 100 µM
O=C1C(Nc2ccc(Cl)cc2)=C(I)C(=O)c2ncccc21,0.989,2.19 µM,0.875,2.14,1.68,11 µM,1.29,2.6 µM,0.828,2.26 µM,2,4.72 µM,1.64,3.02,2.53,13.4 µM,1.69,3.12,1.47,2.99 µM
CC1=C(C(=O)Nc2ccc3n[nH]c(C)c3c2)C(c2ccc(C(F)(F)F)cc2)CC(=O)N1 (stereo not given),16,> 25 µM,13.6,> 25,14,> 25 µM,> 25,> 25 µM,> 25,> 25 µM,6.96,> 25 µM,> 25,> 25,6.3,> 25 µM,6.7,> 25,> 25,> 25 µM
Cc1[nH]c2ccccc2c1CCCO,> 100,> 100 µM,> 100,> 100,> 100,> 100 µM,> 100,> 100 µM,> 100,> 100 µM,> 100,> 100 µM,> 100,> 100,> 100,> 100 µM,> 100,> 100,> 100,> 100 µM
O=C1/C(=C/c2ccccc2)CN(C(=O)CCN2CCOCC2)C/C1=C\c1ccccc1,–,8.38 µM,–,6.32,–,2.99 µM,–,4.99 µM,–,5.4 µM,–,4.71 µM,–,3.41,–,25.5 µM,–,8.87,–,4.55 µM
Cc1ccccc1OCC(O)CN1CCN(c2ccc(Cl)cc2)CC1 (stereo not given),16,30.2 µM,15.2,31.2,17.8,36.9 µM,20.6,37.9 µM,17,34.6 µM,18.3,33.3 µM,18.7,33.5,11.9,24.6 µM,20.2,37.8,16,30.8 µM
C[C@H]1CC[C@@]2(NC1)O[C@H]1C[C@H]3[C@@H]4CC[C@H]5C[C@@H](O)CC[C@]5(C)[C@H]4CC[C@]3(C)[C@H]1[C@@H]2C,17.3,50 µM and > 100 µM,11.2,31.5,19,50 µM and > 100 µM,22,50 µM and > 100 µM,18.1,50 µM and > 100 µM,23.8,50 µM and > 100 µM,17.9,50,13.8,35.2 µM and > 100 µM,> 50,> 50,11.2,29.9 µM and > 100 µM
COc1cccc(-c2c[nH]c3c(N/N=C/c4ccncc4)ncnc23)c1,2.65,11.1 µM,8.58,20.9,1.41,4.9 µM,6.02,17.5 µM,3.19,9.54 µM,4.89,18.5 µM,3.42,> 16,1.96,7.7 µM,0.501,2.16,1.65,> 19.3 µM
C/C(=N/NC(=S)N1CCCCC1)c1ccccc1O,–,> 31.6 µM,–,> 31.6,–,> 31.6 µM,–,> 31.6 µM,–,> 31.6 µM,–,> 100 µM,–,> 31.6,–,> 100 µM,–,> 31.6,–,> 31.6 µM
CSC1=C(N)C(=O)c2[nH]cc(CO)c2C1=N,0.123,0.249 µM,0.0714,0.192,0.418,2.2 µM,0.134,0.267 µM,0.139,0.285 µM,0.171,0.313 µM,0.267,0.618,0.132,0.269 µM,0.281,0.85,0.16,0.317 µM
Cc1ccc(S(=O)(=O)c2c(COC(=O)c3cccc(C)c3)c(-c3ccccc3)nn2C)cc1,> 100,> 100 µM,> 100,> 100,> 100,> 100 µM,> 100,> 100 µM,> 100,> 100 µM,> 100,> 100 µM,> 100,> 100,29.5,> 100 µM,> 100,> 100,> 100,> 100 µM
